The results in this text go back to US20250197406A1, “INDAZOLES AS HEMATOPOIETIC PROGENITOR KINASE 1 (HPK1) INHIBITORS AND METHODS FOR USING SAME” (1ST Biotherapeutics, Inc., priority 2022, published 2025).

Where a name gives a salt, the structure may show the parent alone.

recombinant human HPK1, sequence (Q92918 whole entry): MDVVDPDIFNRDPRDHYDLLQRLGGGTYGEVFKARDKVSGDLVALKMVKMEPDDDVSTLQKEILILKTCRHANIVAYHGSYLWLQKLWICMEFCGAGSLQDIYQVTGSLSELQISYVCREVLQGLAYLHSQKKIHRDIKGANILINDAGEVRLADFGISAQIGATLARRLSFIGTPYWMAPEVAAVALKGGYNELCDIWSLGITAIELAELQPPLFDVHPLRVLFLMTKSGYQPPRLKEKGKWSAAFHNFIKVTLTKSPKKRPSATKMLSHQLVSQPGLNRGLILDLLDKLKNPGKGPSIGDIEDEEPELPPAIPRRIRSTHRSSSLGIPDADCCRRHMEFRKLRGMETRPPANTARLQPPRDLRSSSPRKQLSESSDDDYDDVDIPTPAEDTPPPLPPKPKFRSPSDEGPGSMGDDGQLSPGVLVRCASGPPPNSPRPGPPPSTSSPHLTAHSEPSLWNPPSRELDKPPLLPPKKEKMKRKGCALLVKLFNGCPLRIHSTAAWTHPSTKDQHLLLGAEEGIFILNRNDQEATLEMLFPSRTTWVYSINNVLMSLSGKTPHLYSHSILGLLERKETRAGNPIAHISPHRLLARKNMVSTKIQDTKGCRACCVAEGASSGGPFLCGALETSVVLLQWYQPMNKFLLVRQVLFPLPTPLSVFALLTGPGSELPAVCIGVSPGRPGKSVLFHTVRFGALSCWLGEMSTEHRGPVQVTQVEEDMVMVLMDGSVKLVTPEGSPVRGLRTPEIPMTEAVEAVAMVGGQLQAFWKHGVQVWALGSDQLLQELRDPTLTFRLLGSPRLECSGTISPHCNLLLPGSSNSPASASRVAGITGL

The target of the test is recombinant human HPK1 (Homo sapiens (Human), UniProt Q92918). The test can be described thus: HPK1 kinase assay (Promega ADP-Glo kinase assay). Type of test: biochemical. The conditions noted are these: In vitro activity against HPK1, 5 ng HPK1, MBP substrate, ATP 25 μM, 30° C. 40 minutes. A digest of the protocol:
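ADP-Glo luminescence assay with 5 ng recombinant human HPK1, MBP substrate and ATP (added as 25 µM solution) in Tris pH 7.5, 20 mM MgCl2, BSA, DTT, 0.5% DMSO. Reaction ran 40 min at 30 °C. IC50 was fitted from percent inhibition over an inhibitor concentration range.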
A general note: In ADP-Glo the light output rises with the ADP produced.
As to `C[C@@H](N[S@+]([O-])C(C)(C)C)c1c(F)c(Cl)c(-c2cn3cc(NC(=O)[C@@H]4C[C@@H]4F)nc3cn2)c2cn[nH]c12` [Example 133, (1S,2S)-N-(6-(7-((R)-1-(((R)-tert-butylsulfinyl)amino)ethyl)-5-chloro-6-fluoro-1H-indazol-4-yl)imidazo[1,2-a]pyrazin-2-yl)-2-fluorocyclopropane-1-carboxamide], the IC50 (usually the concentration that inhibits the measured activity by half) was less than 100 nM. As to `CC(=O)Nc1cn2cc(-c3c(Cl)c(F)c([C@H](C)N[S@@+]([O-])C(C)(C)C)c4[nH]ncc34)ncc2n1` [Example 134, N-(6-(7-((S)-1-(((S)-tert-butylsulfinyl)amino)ethyl)-5-chloro-6-fluoro-1H-indazol-4-yl)imidazo[1,2-a]pyrazin-2-yl)acetamide], the IC50 is 101 to 500 nM. Next, `CC(=O)Nc1cn2cc(-c3c(Cl)c(F)c([C@@H](C)N[S@+]([O-])C(C)(C)C)c4[nH]ncc34)ncc2n1` [Example 135, N-(6-(7-((R)-1-(((R)-tert-butylsulfinyl)amino)ethyl)-5-chloro-6-fluoro-1H-indazol-4-yl)imidazo[1,2-a]pyrazin-2-yl)acetamide]: less than 100 nM; `COc1c(F)c(N(C)C)c2[nH]ncc2c1-c1cn2cc(NC(=O)[C@@H]3C[C@@H]3F)nc2cn1` [Example 136, (1S,2S)-N-(6-(7-(dimethylamino)-6-fluoro-5-methoxy-1H-indazol-4-yl)imidazo[1,2-a]pyrazin-2-yl)-2-fluorocyclopropane-1-carboxamide]: less than 100 nM; `C[C@@H](NC(=O)C(F)(F)F)c1c(F)c(Cl)c(-c2cn3cc(NC(=O)[C@@H]4C[C@@H]4F)nc3cn2)c2cn[nH]c12` [Example 137, (1S,2S)-N-(6-(5-chloro-6-fluoro-7-((R)-1-(2,2,2-trifluoroacetamido)ethyl)-1H-indazol-4-yl)imidazo[1,2-a]pyrazin-2-yl)-2-fluorocyclopropane-1-carboxamide]: less than 100 nM. For `CC(=O)Nc1cn2cc(-c3c(Cl)c(F)c([C@H](C)NC(=O)C(F)(F)F)c4[nH]ncc34)ncc2n1` [Example 138, (S)-N-(1-(4-(2-acetamidoimidazo[1,2-a]pyrazin-6-yl)-5-chloro-6-fluoro-1H-indazol-7-yl)ethyl)-2,2,2-trifluoroacetamide], the 50% inhibitory concentration (IC50) is less than 100 nM.

In the case of `CC(=O)Nc1cn2cc(-c3c(Cl)c(F)c([C@@H](C)NC(=O)C(F)(F)F)c4[nH]ncc34)ncc2n1` [Example 139, (R)-N-(1-(4-(2-acetamidoimidazo[1,2-a]pyrazin-6-yl)-5-chloro-6-fluoro-1H-indazol-7-yl)ethyl)-2,2,2-trifluoroacetamide], the IC50 was less than 100 nM.

With `CC(=O)Nc1cn2cc(-c3c(Cl)c(F)c([C@H](C)NC=O)c4[nH]ncc34)ncc2n1` [Example 140, (S)-N-(6-(5-chloro-6-fluoro-7-(1-formamidoethyl)-1H-indazol-4-yl)imidazo[1,2-a]pyrazin-2-yl)acetamide], the IC50 is less than 100 nM.

For `COc1c(F)c(NC(C)C)c2[nH]ncc2c1-c1cn2cc(NC(=O)[C@@H]3C[C@@H]3F)nc2cn1` [Example 141, (1S,2S)-2-fluoro-N-(6-(6-fluoro-7-(isopropylamino)-5-methoxy-1H-indazol-4-yl)imidazo[1,2-a]pyrazin-2-yl)cyclopropane-1-carboxamide], the IC50 was less than 100 nM. Turning to `CC(=O)N1CC(Oc2c(F)c(Cl)c(-c3cn4cc(NC(=O)[C@@H]5C[C@@H]5F)nc4cn3)c3cn[nH]c23)C1` [Example 142, (1S,2S)-N-(6-(7-((1-acetylazetidin-3-yl)oxy)-5-chloro-6-fluoro-1H-indazol-4-yl)imidazo[1,2-a]pyrazin-2-yl)-2-fluorocyclopropane-1-carboxamide], the IC50 lay within 101 to 500 nM.

On to `O=C(Nc1cn2cc(-c3c(Cl)c(F)c(OC4CNC4)c4[nH]ncc34)ncc2n1)[C@@H]1C[C@@H]1F` [Example 143, (1S,2S)-N-(6-(7-(azetidin-3-yloxy)-5-chloro-6-fluoro-1H-indazol-4-yl)imidazo[1,2-a]pyrazin-2-yl)-2-fluorocyclopropane-1-carboxamide formate], for which the IC50 lay in the range of 501 to 1000 nM.

With `CC(C)Nc1c(F)c(Cl)c(-c2cn3cc(NC(=O)Cc4cocn4)nc3cn2)c2cn[nH]c12` [Example 144, N-(6-(5-chloro-6-fluoro-7-(isopropylamino)-1H-indazol-4-yl)imidazo[1,2-a]pyrazin-2-yl)-2-(oxazol-4-yl)acetamide], the IC50 is less than 100 nM. Next, `CC(=O)Nc1cn2cc(-c3c(Cl)c(F)c(OC4CN(C(C)=O)C4)c4[nH]ncc34)ncc2n1` [Example 145, N-(6-(7-((1-acetylazetidin-3-yl)oxy)-5-chloro-6-fluoro-1H-indazol-4-yl)imidazo[1,2-a]pyrazin-2-yl)acetamide]: 501 to 1000 nM; `C[C@H](NC(=O)C(F)(F)F)c1c(F)c(Cl)c(-c2cn3cc(NC(=O)[C@@H]4C[C@@H]4F)nc3cn2)c2cn[nH]c12` [Example 146, (1S,2S)-N-(6-(5-chloro-6-fluoro-7-((S)-1-(2,2,2-trifluoroacetamido)ethyl)-1H-indazol-4-yl)imidazo[1,2-a]pyrazin-2-yl)-2-fluorocyclopropane-1-carboxamide]: less than 100 nM. As for `CC(=O)Nc1cn2cc(-c3c(Cl)c(F)c(OC4CNC4)c4[nH]ncc34)ncc2n1` [Example 147, N-(6-(7-(azetidin-3-yloxy)-5-chloro-6-fluoro-1H-indazol-4-yl)imidazo[1,2-a]pyrazin-2-yl)acetamide formate], the figure is 501 to 1000 nM; as for `CC(=O)Nc1cn2cc(-c3c(Cl)c(F)c(OC4CN(C(=O)CO)C4)c4[nH]ncc34)ncc2n1` [Example 148, N-(6-(5-chloro-6-fluoro-7-((1-(2-hydroxyacetyl)azetidin-3-yl)oxy)-1H-indazol-4-yl)imidazo[1,2-a]pyrazin-2-yl)acetamide], 501 to 1000 nM. As for `CCC(=O)N1CC(Oc2c(F)c(Cl)c(-c3cn4cc(NC(C)=O)nc4cn3)c3cn[nH]c23)C1` [Example 149, N-(6-(5-chloro-6-fluoro-7-((1-propionylazetidin-3-yl)oxy)-1H-indazol-4-yl)imidazo[1,2-a]pyrazin-2-yl)acetamide], the figure is 501 to 1000 nM. In the case of `CC(=O)Nc1cn2cc(-c3c(Cl)c(F)c(CN4CC(O)C4)c4[nH]ncc34)ncc2n1` [Example 150, N-(6-(5-chloro-6-fluoro-7-((3-hydroxyazetidin-1-yl)methyl)-1H-indazol-4-yl)imidazo[1,2-a]pyrazin-2-yl)acetamide], the IC50 lay within 501 to 1000 nM. On to `CC(=O)Nc1cn2cc(-c3c(Cl)c(F)c(CN4CCC(O)C4)c4[nH]ncc34)ncc2n1` (centres unmarked) [Example 151, N-(6-(5-chloro-6-fluoro-7-((3-hydroxypyrrolidin-1-yl)methyl)-1H-indazol-4-yl)imidazo[1,2-a]pyrazin-2-yl)acetamide], for which the half-inhibitory concentration (IC50) lay in the range of 501 to 1000 nM. Next, `CC(=O)Nc1cn2cc(-c3c(Cl)c(F)c(C(O)C4CC4)c4[nH]ncc34)ncc2n1` (centres unmarked) [Example 152, N-(6-(5-chloro-7-(cyclopropyl(hydroxy)methyl)-6-fluoro-1H-indazol-4-yl)imidazo[1,2-a]pyrazin-2-yl)acetamide]: less than 100 nM; `CC(=O)Nc1cn2cc(-c3c(C(F)F)c(F)c(NC(C)C)c4[nH]ncc34)ncc2n1` [Example 153, N-(6-(5-(difluoromethyl)-6-fluoro-7-(isopropylamino)-1H-indazol-4-yl)imidazo[1,2-a]pyrazin-2-yl)acetamide]: less than 100 nM.

Take `CC(C)Nc1c(F)c(C(F)F)c(-c2cn3cc(NC(=O)[C@@H]4C[C@@H]4C#N)nc3cn2)c2cn[nH]c12` [Example 154, (1R,2S)-2-cyano-N-(6-(5-(difluoromethyl)-6-fluoro-7-(isopropylamino)-1H-indazol-4-yl)imidazo[1,2-a]pyrazin-2-yl)cyclopropane-1-carboxamide]: the IC50 was less than 100 nM.

On to `CCC(=O)Nc1cn2cc(-c3c(C(F)F)c(F)c(NC(C)C)c4[nH]ncc34)ncc2n1` [Example 155, N-(6-(5-(difluoromethyl)-6-fluoro-7-(isopropylamino)-1H-indazol-4-yl)imidazo[1,2-a]pyrazin-2-yl)propionamide], for which the IC50 was less than 100 nM. `CC(C)Nc1c(F)c(C(F)F)c(-c2cn3cc(NC(=O)C4CC4)nc3cn2)c2cn[nH]c12` [Example 156, N-(6-(5-(difluoromethyl)-6-fluoro-7-(isopropylamino)-1H-indazol-4-yl)imidazo[1,2-a]pyrazin-2-yl)cyclopropanecarboxamide]: the IC50 was less than 100 nM.

For the compound `CC(=O)Nc1cn2cc(-c3c(Cl)c(F)c(CN4CC(C)(O)C4)c4[nH]ncc34)ncc2n1` [Example 157, N-(6-(5-chloro-6-fluoro-7-((3-hydroxy-3-methylazetidin-1-yl)methyl)-1H-indazol-4-yl)imidazo[1,2-a]pyrazin-2-yl)acetamide], the IC50 lay in the range of 501 to 1000 nM. Next, `COc1c(F)c(NC(C)C)c2[nH]ncc2c1-c1cn2cc(NC(C)=O)nc2cn1` [Example 158, N-(6-(6-fluoro-7-(isopropylamino)-5-methoxy-1H-indazol-4-yl)imidazo[1,2-a]pyrazin-2-yl)acetamide]: less than 100 nM; `CC(=O)Nc1cn2cc(-c3c(Cl)c(F)c(CN4CCC(C)(O)C4)c4[nH]ncc34)ncc2n1` (centres unmarked) [Example 159, N-(6-(5-chloro-6-fluoro-7-((3-hydroxy-3-methylpyrrolidin-1-yl)methyl)-1H-indazol-4-yl)imidazo[1,2-a]pyrazin-2-yl)acetamide]: 501 to 1000 nM; `COc1c(F)c(NC(C)C)c2[nH]ncc2c1-c1cn2cc(NC(=O)C3CC3)nc2cn1` [Example 160, N-(6-(6-fluoro-7-(isopropylamino)-5-methoxy-1H-indazol-4-yl)imidazo[1,2-a]pyrazin-2-yl)cyclopropanecarboxamide]: less than 100 nM.

Take `CC(=O)Nc1cn2cc(-c3c(Cl)c(F)c(C(C)N4CC(O)C4)c4[nH]ncc34)ncc2n1` (centres unmarked) [Example 161, N-(6-(5-chloro-6-fluoro-7-(1-(3-hydroxyazetidin-1-yl)ethyl)-1H-indazol-4-yl)imidazo[1,2-a]pyrazin-2-yl)acetamide]: the IC50 is 501 to 1000 nM.
